We go through 16 molecules from ChEMBL document CHEMBL3870361, “Discovery of Novel Seven-Membered Prostacyclin Analogues as Potent and Selective Prostaglandin FP and EP3 Dual Agonists” (ACS Med Chem Lett, 2017).

Test [1] addresses Prostaglandin F2-alpha receptor (Homo sapiens, UniProt P43088). As to the kind of experiment: Agonist activity at human prostaglandin FP receptor expressed in CHO cells assessed as increase in intracellular calcium level by Fura 2-AM dye based fluorescence assay. It is filed as functional, cell-based.
Test [2] deals with T1, Prostaglandin E2 receptor EP3 subtype (Homo sapiens, UniProt P43115).
T1 sequence (P43115 whole entry): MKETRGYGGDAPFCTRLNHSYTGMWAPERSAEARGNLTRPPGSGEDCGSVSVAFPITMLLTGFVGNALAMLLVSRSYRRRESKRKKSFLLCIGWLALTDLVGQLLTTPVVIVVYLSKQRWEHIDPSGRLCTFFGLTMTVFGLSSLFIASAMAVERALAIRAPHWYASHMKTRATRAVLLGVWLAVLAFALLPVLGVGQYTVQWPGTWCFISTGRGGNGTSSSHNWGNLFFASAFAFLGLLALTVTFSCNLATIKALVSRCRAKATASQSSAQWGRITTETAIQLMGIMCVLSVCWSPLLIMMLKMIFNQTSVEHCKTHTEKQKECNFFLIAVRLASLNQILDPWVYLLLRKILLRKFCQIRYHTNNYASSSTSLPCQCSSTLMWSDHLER
Nature of the test: Agonist activity at human EP3 receptor expressed in CHO cells assessed as increase in intracellular calcium level by Fura 2-AM dye based fluorescence assay. It is filed as functional, cell-based.

The target in test [3] is Prostacyclin receptor (Homo sapiens, UniProt P43119). Nature of the test: Agonist activity at human IP receptor expressed in CHO cells assessed as increase in intracellular cAMP level by HTRF method. It is filed as cell-based. In general terms: cAMP levels reflect the balance of adenylyl cyclase and phosphodiesterase activity.
Chain of Prostacyclin receptor (P43119 whole entry): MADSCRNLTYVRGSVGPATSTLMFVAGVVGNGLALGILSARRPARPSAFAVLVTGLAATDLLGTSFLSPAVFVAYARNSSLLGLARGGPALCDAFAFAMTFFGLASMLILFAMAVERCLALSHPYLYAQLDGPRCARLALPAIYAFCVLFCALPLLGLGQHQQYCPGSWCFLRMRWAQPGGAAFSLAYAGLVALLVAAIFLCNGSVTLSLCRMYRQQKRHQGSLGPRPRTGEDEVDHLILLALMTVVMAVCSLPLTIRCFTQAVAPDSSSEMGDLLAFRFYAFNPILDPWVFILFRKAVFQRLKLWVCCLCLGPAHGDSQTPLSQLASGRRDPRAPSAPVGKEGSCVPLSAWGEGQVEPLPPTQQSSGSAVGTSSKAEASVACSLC
In test [4] the target is Prostaglandin E2 receptor EP2 subtype (Homo sapiens, UniProt P43116). As to the kind of experiment: Agonist activity at EP2 receptor (unknown origin).
Chain of Prostaglandin E2 receptor EP2 subtype (P43116 whole entry): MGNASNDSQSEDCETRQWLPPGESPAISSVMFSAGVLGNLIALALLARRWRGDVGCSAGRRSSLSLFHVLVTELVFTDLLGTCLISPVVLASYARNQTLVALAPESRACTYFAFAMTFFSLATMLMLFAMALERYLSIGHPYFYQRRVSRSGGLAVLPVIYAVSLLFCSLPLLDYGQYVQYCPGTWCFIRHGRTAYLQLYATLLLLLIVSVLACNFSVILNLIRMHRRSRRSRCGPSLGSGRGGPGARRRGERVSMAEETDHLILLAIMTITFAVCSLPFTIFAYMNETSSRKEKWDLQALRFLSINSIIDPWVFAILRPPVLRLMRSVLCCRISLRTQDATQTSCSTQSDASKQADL
The target in test [5] is Prostaglandin E2 receptor EP4 subtype (Homo sapiens, UniProt P35408). As to the kind of experiment: Agonist activity at EP4 receptor (unknown origin).
Chain of Prostaglandin E2 receptor EP4 subtype (P35408 whole entry): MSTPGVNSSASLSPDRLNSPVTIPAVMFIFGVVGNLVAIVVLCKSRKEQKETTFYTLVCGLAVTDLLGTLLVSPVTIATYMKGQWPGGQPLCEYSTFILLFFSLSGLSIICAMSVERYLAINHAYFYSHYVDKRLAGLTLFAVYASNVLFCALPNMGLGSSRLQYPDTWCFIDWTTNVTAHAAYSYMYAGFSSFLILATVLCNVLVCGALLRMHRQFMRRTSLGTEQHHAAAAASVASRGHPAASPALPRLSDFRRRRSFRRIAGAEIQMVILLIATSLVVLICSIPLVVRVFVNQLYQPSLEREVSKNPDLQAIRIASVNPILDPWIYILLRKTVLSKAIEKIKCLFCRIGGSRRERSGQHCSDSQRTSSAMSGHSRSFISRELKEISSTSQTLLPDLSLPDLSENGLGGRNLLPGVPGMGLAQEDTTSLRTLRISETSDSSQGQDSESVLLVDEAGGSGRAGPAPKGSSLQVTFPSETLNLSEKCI

The structures appear in SMILES notation.

Chain of Prostaglandin F2-alpha receptor (P43088 whole entry): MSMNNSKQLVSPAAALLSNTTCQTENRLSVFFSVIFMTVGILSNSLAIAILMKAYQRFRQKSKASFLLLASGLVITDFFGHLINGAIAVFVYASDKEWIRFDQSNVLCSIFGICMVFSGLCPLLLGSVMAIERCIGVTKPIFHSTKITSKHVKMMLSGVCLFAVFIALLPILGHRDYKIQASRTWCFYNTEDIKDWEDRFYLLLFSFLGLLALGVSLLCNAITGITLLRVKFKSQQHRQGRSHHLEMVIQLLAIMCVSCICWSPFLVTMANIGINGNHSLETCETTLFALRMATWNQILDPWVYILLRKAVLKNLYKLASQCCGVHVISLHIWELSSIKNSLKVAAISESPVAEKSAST

With `O=C(O)CCC[C@H]1CC[C@@H]2[C@@H](/C=C/[C@@H](O)COc3ccccc3)[C@H](O)C[C@@H]2O1`, the concentration for a half-maximal effect (EC50) (usually the concentration giving half of the maximal effect) is 7.1 nM in test [1] and 3.6 nM in test [2].

As for `O=C(O)CCCCC1=CC[C@@H]2[C@@H](/C=C/[C@@H](O)COc3ccccc3)[C@H](O)C[C@@H]2OC1`, the EC50 in test [1] is 73 nM; in test [2], 13 nM; in test [3], over 10000 nM.

`O=C(O)CCC1=CC[C@@H]2[C@@H](/C=C/[C@@H](O)COc3ccccc3)[C@H](O)C[C@@H]2OC1`: the EC50 was 530 nM in test [1], 2700 nM in test [2] and over 10000 nM in test [3].

Take `O=C(O)CC[C@H]1CCC[C@@H]2[C@@H](/C=C/[C@@H](O)COc3ccccc3)[C@H](O)C[C@@H]2O1`: the results for the half-maximal effective concentration (EC50) in test [1], in test [2] and in test [3] were 22 nM, 18 nM and over 10000 nM, respectively.

With `O=C(O)CCCC1=CC[C@@H]2[C@@H](/C=C/[C@@H](O)COc3ccccc3)[C@H](O)C[C@@H]2OC1`, the EC50 in test [1] is 640 nM; in test [2], 4700 nM; in test [3] it was over 10000 nM.

As to `O=C(O)CCCC[C@H]1CC[C@@H]2[C@@H](/C=C/[C@@H](O)COc3ccccc3)[C@H](O)C[C@@H]2OC1`, the concentration giving a half-maximal response (EC50) is 43 nM in test [1], 540 nM in test [2] and over 10000 nM in test [3].

For the molecule `O=C(O)CC[C@H]1CC[C@@H]2[C@@H](/C=C/[C@@H](O)COc3ccccc3)[C@H](O)C[C@@H]2OC1`, the results for the EC50 in test [1], in test [2] and in test [3] were 110 nM, 4800 nM and over 10000 nM, respectively.

Turning to `O=C(O)CCC[C@@H]1CC[C@@H]2[C@@H](/C=C/[C@@H](O)COc3ccccc3)[C@H](O)C[C@@H]2OC1`, the EC50 was 280 nM in test [1], 2.3 nM in test [2] and over 10000 nM in test [3].

In the case of `O=C(O)CCCCCC1=CC[C@@H]2[C@@H](/C=C/[C@@H](O)COc3ccccc3)[C@H](O)C[C@@H]2OC1`, the EC50 in test [1] is 880 nM; in test [2], 6400 nM; in test [3], over 10000 nM.

Consider `O=C(O)CC[C@@H]1CCC[C@@H]2[C@@H](/C=C/[C@@H](O)COc3ccccc3)[C@H](O)C[C@@H]2O1`, for which the results for the EC50 in test [1], in test [2] and in test [3] were 3.8 nM, 27 nM and 2000 nM, respectively.

As to `O=C(O)CCC[C@H]1CC[C@@H]2[C@@H](/C=C/[C@@H](O)COc3ccccc3)[C@H](O)C[C@@H]2OC1`, the EC50 is over 10000 nM in test [4]; 28 nM in test [1]; over 10000 nM in test [5]; 4 nM in test [2]; over 10000 nM in test [3].

As for `O=C(O)CCC/C=C\C[C@H]1C(=O)C[C@@H](O)[C@@H]1/C=C/[C@@H](O)COc1ccccc1`, the EC50 in test [1] was 16 nM; in test [2], 0.89 nM.

Regarding `O=C(O)CCCC[C@@H]1CC[C@@H]2[C@@H](/C=C/[C@@H](O)COc3ccccc3)[C@H](O)C[C@@H]2OC1`, the EC50 in test [1] is 110 nM; in test [2], 130 nM; in test [3] it was over 10000 nM.

On to `O=C(O)CCC[C@@H]1CC[C@@H]2[C@@H](/C=C/[C@@H](O)COc3ccccc3)[C@H](O)C[C@@H]2O1`, for which the EC50 is 4.1 nM in test [1], 4.1 nM in test [2] and 26 nM in test [3].

Turning to `O=C(O)CC[C@@H]1CC[C@@H]2[C@@H](/C=C/[C@@H](O)COc3ccccc3)[C@H](O)C[C@@H]2OC1`, the EC50 in test [1] is 1000 nM; in test [2] it was 870 nM; in test [3], over 10000 nM.

In the case of `O=C(O)CCC/C=C\C[C@@H]1[C@@H](/C=C/[C@@H](O)COc2cccc(C(F)(F)F)c2)[C@H](O)C[C@@H]1O` [FLUPROSTENOL], the figures for the EC50 in test [1], in test [2] and in test [3] were 3.6 nM, 3400 nM and over 10000 nM, respectively.
